Biological target: T1, Or22a (Or22a^1; ab3A-1 neurons) (Drosophila melanogaster, UniProt P81909)
T1 sequence (P81909 1-397): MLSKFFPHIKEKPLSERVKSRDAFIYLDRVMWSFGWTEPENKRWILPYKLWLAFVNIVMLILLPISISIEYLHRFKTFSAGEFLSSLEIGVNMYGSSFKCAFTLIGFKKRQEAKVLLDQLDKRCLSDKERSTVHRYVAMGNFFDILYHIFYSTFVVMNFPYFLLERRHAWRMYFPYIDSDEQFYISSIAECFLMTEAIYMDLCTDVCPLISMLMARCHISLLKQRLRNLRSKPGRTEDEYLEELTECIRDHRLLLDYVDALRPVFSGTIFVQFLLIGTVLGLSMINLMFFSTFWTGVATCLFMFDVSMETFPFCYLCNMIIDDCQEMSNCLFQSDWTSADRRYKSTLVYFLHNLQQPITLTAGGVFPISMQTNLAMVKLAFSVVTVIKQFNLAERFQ
T1 sequence (Q9VNB5 1-486 partner): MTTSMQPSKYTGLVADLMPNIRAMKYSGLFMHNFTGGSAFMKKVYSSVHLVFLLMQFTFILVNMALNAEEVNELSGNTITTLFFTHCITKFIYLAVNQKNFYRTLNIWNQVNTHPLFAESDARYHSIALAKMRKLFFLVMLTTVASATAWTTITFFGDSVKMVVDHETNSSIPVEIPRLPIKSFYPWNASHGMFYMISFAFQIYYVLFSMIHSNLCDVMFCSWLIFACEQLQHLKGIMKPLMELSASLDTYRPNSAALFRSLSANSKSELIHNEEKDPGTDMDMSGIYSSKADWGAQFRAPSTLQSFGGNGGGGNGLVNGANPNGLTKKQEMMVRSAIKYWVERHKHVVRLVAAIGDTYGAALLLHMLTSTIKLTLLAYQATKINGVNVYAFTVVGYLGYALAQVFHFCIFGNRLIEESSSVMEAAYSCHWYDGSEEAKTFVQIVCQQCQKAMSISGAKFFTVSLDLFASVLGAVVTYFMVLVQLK
Experiment: single-sensillum recording, transgene in empty ab3A neuron

Structure (SMILES)	spikes/s (odorant at 10^−2 v/v in paraffin oil)	spikes/s (odorant at 10^−4 v/v in paraffin oil)
CCOC(=O)C(C)CC (centres unmarked) [ethyl 2-methyl butanoate]	flies expressing Or22ab have decreased responses to ethyl hexanoate, methyl hexanoate, and ethyl 2-methyl butanoate	
CCCCCC(=O)OC [methyl hexanoate]		flies expressing Or22ab have decreased responses to ethyl hexanoate, methyl hexanoate, and ethyl 2-methyl butanoate

Reference: article PMC6502086 (Molecular Biology and Evolution, 2019)
